Assay results taken from patent US20220128542A1, “TREATMENT EFFICIENCY EVALUATION” (TX MEDIC AB, priority 2019, published 2022).

Test system: brain of rats subjected to severe traumatic brain injury (sTBI)
Experiment: Ingenuity pathway analysis of differentially regulated genes after sTBI (canonical pathways, diseases and molecular functions; Example 4)
Design: species or system rat
Description: Pathway analysis of the differentially regulated genes was carried out using the Ingenuity pathway analysis package. The analysis was performed with special reference to pathways and molecular processes and diseases associated with neurodegenerative disease, including dementia, Alzheimer's disease, ALS, TBI and stroke, and with scarring and fibrosis, including glaucoma and normal pressure hydrocephalus (NPH) after subarachnoid haemorrhage.

[1] = TBI + 5 mg/kg LMW-DS, 7 days after TBI
[2] = TBI + 15 mg/kg LMW-DS, 2 days after TBI
[3] = TBI + 15 mg/kg LMW-DS, 7 days after TBI, relative to control
[4] = TBI + 15 mg/kg LMW-DS, 7 days after TBI
[5] = TBI + 15 mg/kg repeat dose LMW-DS, 7 days after TBI
[6] = TBI + 15 mg/kg repeated dose LMW-DS, 7 days after TBI, relative to control
[7] = TBI + 15 mg/kg repeated dose LMW-DS, 7 days after TBI

sodium salt of dextran sulfate [LMW-DS]
−1: z score, Ingenuity canonical pathway: Fc Epsilon RI Signaling [6]
Activated: Ingenuity canonical pathway: Acute Phase Response Signaling [1] | Ingenuity canonical pathway: Cardiac Hypertrophy Signaling [1] | Ingenuity canonical pathway: Dendritic Cell Maturation [1] | Ingenuity canonical pathway: ERK/MAPK Signaling [1] | Ingenuity canonical pathway: Endothelin-1 Signaling [1] | Ingenuity canonical pathway: Fcγ Receptor-mediated Phagocytosis in Macrophages and Monocytes [1] | Ingenuity canonical pathway: GNRH Signaling [1] | Ingenuity canonical pathway: HMGB1 Signaling [1] | Ingenuity canonical pathway: IL-1 Signaling [1] | Ingenuity canonical pathway: IL-6 Signaling [1] | Ingenuity canonical pathway: IL-8 Signaling [1] | Ingenuity canonical pathway: ILK Signaling [1] | Ingenuity canonical pathway: Leukocyte Extravasation Signaling [1] | Ingenuity canonical pathway: Neuroinflammation Signaling Pathway [1] | Ingenuity canonical pathway: PI3K Signaling in B Lymphocytes [1] | Ingenuity canonical pathway: PKCO Signaling in T Lymphocytes [1] | Ingenuity canonical pathway: Phospholipase C Signaling [1] | Ingenuity canonical pathway: Production of Nitric Oxide and Reactive Oxygen Species in Macrophages [1] | Ingenuity canonical pathway: Role of NFAT in Regulation of the Immune Response [1] | Ingenuity canonical pathway: Signaling by Rho Family GTPases [1] | Ingenuity canonical pathway: Synaptic Long Term Depression [1] | Ingenuity canonical pathway: mTOR Signaling [1] | Effect on diseases or functions annotation: Apoptosis of tumor cell lines [2] | Diseases or functions annotation: Apoptosis of tumor cell lines [4] | Diseases or functions annotation: Cancer [4] | Diseases or functions annotation: Carcinoma [4] | Diseases or functions annotation: Cell death of tumor cell lines [4] | Diseases or functions annotation: Cell movement of myeloid cells [4] | Diseases or functions annotation: Development of carcinoma [4] | Diseases or functions annotation: Development of connective tissue cells [4] | Diseases or functions annotation: Differentiation of bone cells [4] | Diseases or functions annotation: Epithelial neoplasm [4] | Diseases or functions annotation: Extracranial solid tumor [4] | Diseases or functions annotation: Genitourinary tumor [4] | Diseases or functions annotation: Leukocyte migration [4] | Diseases or functions annotation: Necrosis [4] | Diseases or functions annotation: Non-melanoma solid tumor [4] | Diseases or functions annotation: Quantity of cells [4] | Diseases or functions annotation: Solid tumor [4] | Diseases or functions annotation: Transcription [4] | Diseases or functions annotation: Transcription of RNA [4] | Diseases or functions annotation: Tumorigenesis of epithelial neoplasm [4] | Diseases or functions annotation: Tumorigenesis of tissue [4] | Ingenuity canonical pathway: Endothelin-1 Signaling [4] | Ingenuity canonical pathway: Phospholipase C Signaling [4] | Ingenuity canonical pathway: cAMP-mediated signaling [4] | Diseases or functions annotation: Branching of cells [5] | Diseases or functions annotation: Cell movement [5] | Diseases or functions annotation: Cell-cell contact [5] | Diseases or functions annotation: Concentration of hormone [5] | Diseases or functions annotation: Development of gap junctions [5] | Diseases or functions annotation: Development of neurons [5] | Diseases or functions annotation: Developmental process of synapse [5] | Diseases or functions annotation: Extracranial solid tumor [5] | Diseases or functions annotation: Formation of cellular protrusions [5] | Diseases or functions annotation: Formation of intercellular junctions [5] | Diseases or functions annotation: Learning [5] | Diseases or functions annotation: Microtubule dynamics [5] | Diseases or functions annotation: Migration of cells [5] | Diseases or functions annotation: Morphogenesis of neurons [5] | Diseases or functions annotation: Neurotransmission [5] | Diseases or functions annotation: Obesity [5] | Diseases or functions annotation: Organization of cytoplasm [5] | Diseases or functions annotation: Organization of cytoskeleton [5] | Diseases or functions annotation: Quantity of Ca^2+ [5] | Diseases or functions annotation: Quantity of cells [5] | Diseases or functions annotation: Seizure disorder [5] | Diseases or functions annotation: Size of body [5] | Diseases or functions annotation: Skin lesion [5] | Diseases or functions annotation: Transport of ion [5] | Diseases or functions annotation: Transport of metal [5] | Diseases or functions annotation: Transport of molecule [5] | Ingenuity canonical pathway: 3-phosphoinositide Degradation [7] | Ingenuity canonical pathway: Ephrin Receptor Signaling [7] | Ingenuity canonical pathway: G Beta Gamma Signaling [7] | Ingenuity canonical pathway: NF-κB Signaling [7] | Ingenuity canonical pathway: Opioid Signaling Pathway [7] | Ingenuity canonical pathway: Role of NFAT in Cardiac Hypertrophy [7] | Ingenuity canonical pathway: Role of NFAT in Regulation of the Immune Response [7] | Ingenuity canonical pathway: Signaling by Rho Family GTPases [7] | Ingenuity canonical pathway: Superpathway of Inositol Phosphate Compounds [7] | Ingenuity canonical pathway: Synaptic Long Term Depression [7]
2.236: z score, Ingenuity canonical pathway: Ephrin Receptor Signaling [6] | z score, Ingenuity canonical pathway: G Beta Gamma Signaling [6] | z score, Ingenuity canonical pathway: Role of NFAT in Regulation of the Immune Response [6]
−0.447: z score, Ingenuity canonical pathway: Acute Phase Response Signaling [6] | z score, Ingenuity canonical pathway: B Cell Receptor Signaling [6]
0.447: z score, Ingenuity canonical pathway: NF-κB Signaling [6] | z score, Ingenuity canonical pathway: Role of NFAT in Cardiac Hypertrophy [6]
2: z score, Ingenuity canonical pathway: Phospholipase C Signaling [3] | z score, Ingenuity canonical pathway: 3-phosphoinositide Degradation [6] | z score, Ingenuity canonical pathway: Superpathway of Inositol Phosphate Compounds [6]
−0.378: z score, Ingenuity canonical pathway: Adrenomedullin signaling pathway [6]
0.816: z score, Ingenuity canonical pathway: Opioid Signaling Pathway [6]
1.342: z score, Ingenuity canonical pathway: Synaptic Long Term Depression [6]
Inhibited: Ingenuity canonical pathway: Adrenomedullin signaling pathway [1] | Ingenuity canonical pathway: Colorectal Cancer Metastasis Signaling [1] | Ingenuity canonical pathway: ERK5 Signaling [1] | Ingenuity canonical pathway: Osteoarthritis Pathway [1] | Ingenuity canonical pathway: PPAR Signaling [1] | Ingenuity canonical pathway: Protein Kinase A Signaling [1] | Ingenuity canonical pathway: Wnt/β-catenin Signaling [1] | Ingenuity canonical pathway: cAMP-mediated signaling [1] | Effect on diseases or functions annotation: Apoptosis [2] | Effect on diseases or functions annotation: Behavior [2] | Effect on diseases or functions annotation: Cell death [2] | Effect on diseases or functions annotation: Necrosis [2] | Effect on diseases or functions annotation: Quantity of blood cells [2] | Effect on diseases or functions annotation: Quantity of cells [2] | Effect on diseases or functions annotation: Quantity of lymphocytes [2] | Diseases or functions annotation: Abdominal neoplasm [4] | Diseases or functions annotation: Apoptosis [4] | Diseases or functions annotation: Cell death [4] | Diseases or functions annotation: Development of malignant tumor [4] | Diseases or functions annotation: Frequency of tumor [4] | Diseases or functions annotation: Incidence of tumor [4] | Diseases or functions annotation: Abdominal cancer [5] | Diseases or functions annotation: Abdominal neoplasm [5] | Diseases or functions annotation: Adenocarcinoma [5] | Diseases or functions annotation: Carcinoma [5] | Diseases or functions annotation: Concentration of lipid [5] | Diseases or functions annotation: Dendritic growth/branching [5] | Diseases or functions annotation: Development of connective tissue cells [5] | Diseases or functions annotation: Differentiation of bone cells [5] | Diseases or functions annotation: Differentiation of connective tissue cells [5] | Diseases or functions annotation: Digestive organ tumor [5] | Diseases or functions annotation: Digestive system cancer [5] | Diseases or functions annotation: Epithelial neoplasm [5] | Diseases or functions annotation: Gastrointestinal tumor [5] | Diseases or functions annotation: Hematologic cancer [5] | Diseases or functions annotation: Hematopoietic neoplasm [5] | Diseases or functions annotation: Non-hematological solid tumor [5] | Diseases or functions annotation: Non-melanoma solid tumor [5] | Diseases or functions annotation: Nonhematologic malignant neoplasm [5] | Diseases or functions annotation: Quantity of carbohydrate [5] | Diseases or functions annotation: Tumorigenesis of tissue [5] | Ingenuity canonical pathway: Acute Phase Response Signaling [7] | Ingenuity canonical pathway: Adrenomedullin signaling pathway [7] | Ingenuity canonical pathway: B Cell Receptor Signaling [7] | Ingenuity canonical pathway: Fc Epsilon RI Signaling [7]
1: z score, Ingenuity canonical pathway: Endothelin-1 Signaling [3] | z score, Ingenuity canonical pathway: cAMP-mediated signaling [3] | z score, Ingenuity canonical pathway: Signaling by Rho Family GTPases [6]
